IC50 and melting point data for 7 compounds are collected here from patent US20090005374A1, “IMIDAZOPYRIDINYL THIAZOLYL HISTONE DEACETYLASE INHIBITORS” (priority 2007, published 2009).

As a reminder, the IC50 is the point on the concentration scale where inhibition reaches its midpoint. By melting point is commonly meant the temperature of the solid-liquid transition.

The target in data set [1] is T1, HDAC 1 (Homo sapiens, UniProt Q13547). The data set is described as follows: HDAC 1 fluorogenic peptide substrate assay without preincubation. Conditions: no preincubation; read-out: HDAC 1 inhibitory activity (IC50) No preincubation. Type of data set: biochemical. As to the method:
(§1) HDAC inhibitory activity of the compound of Example 1 was measured by two types of assays in which HDAC 1 and 6 were used as a target molecule. The first assay was carried out without preincubation after addition of the enzyme. The test compound was suspended in and titrated in DMSO. It was then spotted into a 384-well test plate. The enzyme, HDAC 1 or 6, was diluted in assay buffer containing 25 mM Tris-HCl (pH 8.0), 137 mM NaCl, 2.7 mM KCl, and 0.01% Tween-20 and added to the pre-spotted compound. The peptide substrate containing a fluorophore/quencher pair was diluted in the same assay buffer and added to the compound/enzyme mix initiating the reaction. The reaction incubated at room temperature for about 45 minutes. A concentrated developer solution was diluted in the assay buffer, and added to the reaction. The reaction was incubated at room temperature for about 15 minutes and relative fluorescence was read on an instrument reader.

In data set [2] the target is T1, HDAC 1. The data set is described as follows: HDAC 1 fluorogenic peptide substrate assay with 3-hour enzyme/compound preincubation. In kind it is biochemical. Conditions: 3-hour preincubation of enzyme and compound; read-out: HDAC 1 inhibitory activity (IC50) 3-hour preincubation. Here is the method: (§2) The second assay is similar to the first assay described above, except that preincubation is carried out for about 3 hours after the enzyme is introduced. The test compound was suspended in, and titrated in DMSO. It was then spotted into a 384-well test plate. The enzyme, HDAC 1 or 6, was diluted in the same assay buffer as used in the previous assay and added to the pre-spotted compound. The enzyme/compound mix was incubated at room temperature for about 3 hours. The peptide substrate containing a fluorophore/quencher pair was diluted in the assay buffer and added to the compound/enzyme mix initiating the reaction. The reaction incubated at room temperature for 45 minutes. A concentrated developer solution was diluted in the assay buffer, and added to the reaction. The reaction was incubated at room temperature for about 15 minutes and relative fluorescence was read on an instrument reader.

Data set [3] concerns the target T2, HDAC 6 (Homo sapiens, UniProt Q9UBN7).
T2 sequence (Q9UBN7 1-1215): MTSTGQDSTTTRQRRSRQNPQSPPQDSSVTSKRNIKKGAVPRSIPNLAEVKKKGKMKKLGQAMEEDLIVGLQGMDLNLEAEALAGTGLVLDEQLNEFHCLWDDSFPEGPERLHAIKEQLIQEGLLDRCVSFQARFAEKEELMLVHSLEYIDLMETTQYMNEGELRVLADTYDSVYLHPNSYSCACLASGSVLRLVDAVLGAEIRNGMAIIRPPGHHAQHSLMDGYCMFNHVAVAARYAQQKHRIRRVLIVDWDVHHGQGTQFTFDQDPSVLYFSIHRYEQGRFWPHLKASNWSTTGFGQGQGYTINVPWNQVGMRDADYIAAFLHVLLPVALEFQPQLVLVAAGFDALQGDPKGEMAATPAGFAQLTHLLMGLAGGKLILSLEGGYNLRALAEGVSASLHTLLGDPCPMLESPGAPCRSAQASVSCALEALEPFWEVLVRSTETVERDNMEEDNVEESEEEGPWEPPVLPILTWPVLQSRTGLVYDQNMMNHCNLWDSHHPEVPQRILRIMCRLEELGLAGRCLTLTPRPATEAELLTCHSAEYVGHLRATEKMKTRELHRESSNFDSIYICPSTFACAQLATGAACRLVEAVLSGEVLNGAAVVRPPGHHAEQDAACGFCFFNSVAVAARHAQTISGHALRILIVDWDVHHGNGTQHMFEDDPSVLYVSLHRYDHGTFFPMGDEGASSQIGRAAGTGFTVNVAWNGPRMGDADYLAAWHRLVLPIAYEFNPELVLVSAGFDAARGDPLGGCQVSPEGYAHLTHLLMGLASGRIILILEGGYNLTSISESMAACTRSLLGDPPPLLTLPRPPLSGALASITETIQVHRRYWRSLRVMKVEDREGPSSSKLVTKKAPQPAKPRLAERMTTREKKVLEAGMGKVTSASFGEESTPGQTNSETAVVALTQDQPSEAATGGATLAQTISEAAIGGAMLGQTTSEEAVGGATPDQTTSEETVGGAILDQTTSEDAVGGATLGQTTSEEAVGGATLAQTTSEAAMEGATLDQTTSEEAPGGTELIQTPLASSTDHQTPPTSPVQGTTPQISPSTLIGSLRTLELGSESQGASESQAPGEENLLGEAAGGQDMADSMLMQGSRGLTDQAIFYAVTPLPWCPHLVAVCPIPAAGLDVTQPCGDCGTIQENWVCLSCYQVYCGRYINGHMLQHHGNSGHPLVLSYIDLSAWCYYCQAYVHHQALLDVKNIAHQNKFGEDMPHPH
The data set is described as follows: HDAC 6 fluorogenic peptide substrate assay without preincubation. Type of data set: biochemical. Conditions: no preincubation; read-out: HDAC 6 inhibitory activity (IC50) No preincubation. As to the method: as §1

Data set [4] addresses T2, HDAC 6. Nature of the data set: HDAC 6 fluorogenic peptide substrate assay with 3-hour enzyme/compound preincubation. Type of data set: biochemical. Conditions: 3-hour preincubation of enzyme and compound; read-out: HDAC 6 inhibitory activity (IC50) 3-hour preincubation. Here is the method:
as §2

Some results are limits rather than exact numbers.

T1 sequence (Q13547 whole entry, species assumed): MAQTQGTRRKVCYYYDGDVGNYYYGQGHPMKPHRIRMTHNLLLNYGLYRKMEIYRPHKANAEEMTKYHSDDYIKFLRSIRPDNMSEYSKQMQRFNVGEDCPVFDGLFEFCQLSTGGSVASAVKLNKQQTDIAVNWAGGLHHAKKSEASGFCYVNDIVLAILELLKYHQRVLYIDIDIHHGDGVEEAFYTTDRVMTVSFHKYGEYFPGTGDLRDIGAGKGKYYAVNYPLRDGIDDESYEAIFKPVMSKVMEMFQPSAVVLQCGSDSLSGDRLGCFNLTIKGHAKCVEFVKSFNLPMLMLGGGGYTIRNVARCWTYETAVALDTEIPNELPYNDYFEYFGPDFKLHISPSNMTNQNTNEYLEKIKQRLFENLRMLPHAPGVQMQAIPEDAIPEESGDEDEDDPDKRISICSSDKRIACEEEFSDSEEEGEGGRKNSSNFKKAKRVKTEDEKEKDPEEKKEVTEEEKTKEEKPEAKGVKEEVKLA

For `Cc1nc2ccccn2c1-c1csc(Nc2cccc(C(=O)NO)c2)n1` [Example 1, N-Hydroxy-3-[4-(2-methyl-imidazo[1,2-a]pyridin-3-yl)-thiazol-2-ylamino] -benzamide], the melting point turned out to be 170.4 °C. The IC50 on HDAC 1 [1] came out at 1.08 µM. Further, the IC50 at HDAC 1 [2] was determined as 0.0927 µM. Further, at HDAC 6 [3], the concentration for half-maximal inhibition (IC50) was 0.318 µM. In addition, the IC50 on HDAC 6 [4] is 0.49 µM.
`Cc1nc2ccccn2c1-c1csc(Nc2cccc(C(=O)Nc3ccccc3N)c2)n1` [Example 2, N-(2-Amino-phenyl)-3-[4-(2-methyl-imidazo[1,2-a]pyridin-3-yl)-thiazol-2-ylamino]-benzamide]: the melting point is 194.9 to 197 °C. Moreover, on HDAC 1 [1], the IC50 is 3.26 µM. The IC50 at HDAC 1 [2] was found to be 42 µM. Also, the IC50 at HDAC 6 [3] was more than 50 µM. The IC50 on HDAC 6 [4] is more than 50 µM.
Compound `Cc1nc2ccccn2c1-c1csc(Nc2ccc(C(=O)NO)cc2)n1` [Example 3, N-Hydroxy-4-[4-(2-methyl-imidazo[1,2-a]pyridin-3-yl)-thiazol-2-ylamino]-benzamide] gave a melting point of 188.3 °C. At HDAC 1 [1], the IC50 turned out to be 0.08 µM. In addition, at HDAC 1 [2], the IC50 was found to be 0.0535 µM. Moreover, the IC50 at HDAC 6 [3] is 0.0467 µM. For the same compound, the IC50 on HDAC 6 [4] came out at 0.0558 µM.
`Cc1nc2ccccn2c1-c1csc(Nc2ccc(C(=O)Nc3ccccc3N)cc2)n1` [Example 4, N-(2-Amino-phenyl)-4-[4-(2-methyl-imidazo[1,2-a]pyridin-3-yl)-thiazol-2-ylamino]-benzamide] returned a melting point of 161.1 to 165.4 °C. The IC50 on HDAC 1 [1] is 0.313 µM. In addition, the IC50 at HDAC 1 [2] is 0.08 µM. Moreover, on HDAC 6 [3], the half-inhibitory concentration (IC50) is more than 50 µM. For the same compound, the IC50 on HDAC 6 [4] is more than 50 µM.
`O=C(NO)c1ccc(Nc2nc(-c3cnc4ccccn34)cs2)cc1` [Example 13, N-Hydroxy-4-(4-imidazo[1,2-a]pyridin-3-yl-thiazol-2-ylamino)-benzamide] came in with a melting point of 209.9 °C. For the same compound, the IC50 at HDAC 1 [1] was found to be 0.0855 µM. Besides, on HDAC 1 [2], the IC50 amounted to 0.029 µM. Further, the IC50 on HDAC 6 [3] came out at 0.0185 µM. Also, the IC50 at HDAC 6 [4] turned out to be 0.017 µM.
On to `O=C(NO)c1cccc(Nc2nc(-c3cnc4ccccn34)cs2)c1` [Example 14, N-Hydroxy-3-(4-imidazo[1,2-a]pyridin-3-yl-thiazol-2-ylamino)-benzamide], for which the melting point was determined as 184.1 °C. Also, the 50% inhibitory concentration (IC50) at HDAC 1 [1] is 5.4 µM. Also, the IC50 on HDAC 1 [2] turned out to be 0.114 µM. Further, on HDAC 6 [3], the IC50 worked out at 0.183 µM.
`Nc1ccccc1NC(=O)c1ccc(Nc2nc(-c3cnc4ccccn34)cs2)cc1` [Example 15, N-(2-Amino-phenyl)-4-(4-imidazo[1,2-a]pyridin-3-yl-thiazol-2-ylamino)-benzamide] registered a melting point of 229.4 °C. For the same compound, the IC50 at HDAC 1 [2] amounted to 0.037 µM. Besides, the IC50 at HDAC 6 [4] is more than 10 µM.
